Calls of active or inactive are those of the source. No cut-off for these calls is given here.
Columns and labels:
[1] = biological target: Chymotrypsinogen A (Bos taurus) (UniProt P00766); assay: Ratio between k inactivation and KI of alpha-chymotrypsin
Chymotrypsinogen A = Chymotrypsinogen A (Bos taurus, UniProt P00766); assay: Compound was tested for the binding affinity against alpha-chymotrypsin
[2] = biological target: Chymotrypsinogen A (Bos taurus) (UniProt P00766); assay: Compound was tested for the Inactivation of alpha-chymotrypsin
[3] = biological target: T1, Neutrophil elastase (Homo sapiens) (UniProt P08246); assay: Ratio between k observed and KI of Human leukocyte elastase (HEL);[…]
T1 sequence (whole entry): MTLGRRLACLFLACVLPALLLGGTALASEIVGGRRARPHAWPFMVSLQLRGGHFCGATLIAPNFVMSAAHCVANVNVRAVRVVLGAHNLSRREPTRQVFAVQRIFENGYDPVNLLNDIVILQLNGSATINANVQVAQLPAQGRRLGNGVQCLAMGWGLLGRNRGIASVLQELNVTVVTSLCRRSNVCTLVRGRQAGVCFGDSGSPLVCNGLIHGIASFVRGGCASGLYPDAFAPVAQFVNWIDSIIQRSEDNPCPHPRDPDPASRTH

[4] = biological target: T1, Neutrophil elastase (Homo sapiens); assay: Ratio between k observed and KI of Human leukocyte elastase (HEL)
[5] = tested on: alpha-chymotrypsin (Bos taurus); assay: Ratio between k observed and KI of bovine alpha-chymotrypsin at 20 degree C
[6] = biological target: Chymotrypsinogen A (Bos taurus) (UniProt P00766); assay: Ratio between k inactivation and KI of alpha-chymotrypsin; No inhibition

SMILES | K inact/Ki [1] [M⁻¹ s⁻¹] | K obs / 1 [3] | also measured
Cc1ccccc1OC(=O)c1cc2cc(CCl)ccc2oc1=O | 114000 | inactive | Ki (Chymotrypsinogen A): 380 nM; K inact [2]: 0.043 s⁻¹
O=C(Oc1cccc(Cl)c1)c1cc2cc(CCl)ccc2oc1=O | 763000 |  | K obs / 1 [4]: 630 M⁻¹ s⁻¹
O=C(Oc1cccc([N+](=O)[O-])c1)c1cc2cc(CCl)ccc2oc1=O | 11300 |  | K obs / 1 [4]: 500 M⁻¹ s⁻¹
O=C(Oc1ccccc1Cl)c1cc2cc(CCl)ccc2oc1=O | 48100 |  | Ki (Chymotrypsinogen A): 790 nM; K inact [2]: 0.038 s⁻¹; K obs / 1 [4]: 23 M⁻¹ s⁻¹
O=c1ccc2cc(CBr)ccc2o1 |  |  | K obs / 1 [5]: 12.5 M⁻¹ s⁻¹
O=C(NCCc1ccccc1)c1cc2cc(CCl)ccc2oc1=O | 6 | inactive | 
Cc1cccc(OC(=O)c2cc3cc(CCl)ccc3oc2=O)c1 | 71800 | inactive | 
O=C(NCc1ccccc1)c1cc2cc(CCl)ccc2oc1=O | 24 |  | K obs / 1 [4]: 58 M⁻¹ s⁻¹
O=C(Oc1ccccc1I)c1cc2cc(CCl)ccc2oc1=O | 80000 |  | Ki (Chymotrypsinogen A): 250 nM; K inact [2]: 0.02 s⁻¹; K obs / 1 [4]: 85 M⁻¹ s⁻¹
Cc1ccc2oc(=O)c(C(=O)Oc3ccccc3)cc2c1 |  |  | K inact/Ki [6]: inactive; K obs / 1 [4]: 330 M⁻¹ s⁻¹
COC(=O)C(Cc1ccccc1)NC(=O)c1cc2cc(CCl)ccc2oc1=O (stereo unspecified) | 80 | inactive | 
O=C(Nc1ccccc1)c1cc2cc(CCl)ccc2oc1=O | 32 | inactive | 
Cc1cc(OC(=O)c2cc3cc(CCl)ccc3oc2=O)ccc1Cl | 7550 |  | K obs / 1 [4]: 90 M⁻¹ s⁻¹
CCCCCCCCCCNC(=O)c1cc2cc(CCl)ccc2oc1=O |  | inactive | 

Further lines, with some results ahead:

K inact/Ki [1] [M⁻¹ s⁻¹] | K obs / 1 [3] | SMILES | also measured
 | inactive | CNC(=O)c1cc2cc(CCl)ccc2oc1=O | K inact/Ki [6]: inactive
 | inactive | CC(C)NC(=O)c1cc2cc(CCl)ccc2oc1=O | K inact/Ki [6]: inactive
186 | inactive | O=C(OCc1ccccc1)c1cc2cc(CCl)ccc2oc1=O | 
100000 |  | O=C(Oc1ccccc1)c1cc2cc(CCl)ccc2oc1=O | Ki (Chymotrypsinogen A): 340 nM; K inact [2]: 0.034 s⁻¹; K obs / 1 [4]: 23 M⁻¹ s⁻¹
687 | inactive | CC(C)OC(=O)c1cc2cc(CCl)ccc2oc1=O | Ki (Chymotrypsinogen A): 16000 nM; K inact [2]: 0.011 s⁻¹
 | inactive | CCCCCNC(=O)c1cc2cc(CCl)ccc2oc1=O | K inact/Ki [6]: inactive
12 | inactive | CCCCCOC(=O)c1cc2cc(CCl)ccc2oc1=O | 
72100 |  | O=C(Oc1cccc(I)c1)c1cc2cc(CCl)ccc2oc1=O | K obs / 1 [4]: 85 M⁻¹ s⁻¹
110 | inactive | COC(=O)c1cc2cc(CCl)ccc2oc1=O | 
424 | inactive | C=CCOC(=O)c1cc2cc(CCl)ccc2oc1=O | Ki (Chymotrypsinogen A): 33000 nM; K inact [2]: 0.014 s⁻¹
220 | inactive | CCOC(=O)c1cc2cc(CCl)ccc2oc1=O | Ki (Chymotrypsinogen A): 59000 nM; K inact [2]: 0.013 s⁻¹
685 | inactive | Cc1ccc(OC(=O)c2cc3cc(CCl)ccc3oc2=O)cc1 | 
330 | inactive | O=C(Oc1ccc(Cl)cc1)c1cc2cc(CCl)ccc2oc1=O | 
1780 | inactive | O=C(Oc1ccc(I)cc1)c1cc2cc(CCl)ccc2oc1=O | 
 | inactive | O=C(O)c1cc2cc(CCl)ccc2oc1=O | K inact/Ki [6]: inactive
80 | inactive | C=CCNC(=O)c1cc2cc(CCl)ccc2oc1=O | 
12 | inactive | COC(=O)CNC(=O)c1cc2cc(CCl)ccc2oc1=O | 
190 | inactive | CCCCCCCCOC(=O)c1cc2cc(CCl)ccc2oc1=O | 
